Results on 12 molecules are retold here after patent publication US9908908B2, “Tenofovir prodrug and pharmaceutical uses thereof” (Jiangsu Hansoh Pharmaceutical Co., Ltd., priority 2012, dated 2018).

The structures appear in SMILES notation. Read-outs that look alike come from different tables or passages of the source. Bounds are passed on as bounds.

Series [1] deals with hepatitis B virus (HBV). Put plainly: In vitro anti-hepatitis B virus activity (HBV DNA-replication, dot blot). In kind it is cell-based. The protocol: HepG 2.2.15 cell was used as the hepatitis B virus (HBV) vehicle to determine the inhibition effect of the compounds on DNA-replication of HBV.
Test method: HepG 2.2.15 cells were seeded into a 96-well culture plate. Various dilutions of test samples and positive control were added, respectively, after 24 hours, in which a cell control well was set. The medium was replaced with culture containing various dilutions of test samples after 72 hours. The supernatants and HepG 2.2.15 cells were collected after 6 days of culture.

Series [2] can be described thus: Cytotoxicity test (CellTiter-Blue). In kind it is cell-based. The note with it: human; HepG 2.2.15 cells, 6 days of culture; read-out: Toxicity CC50. As to the method:
(§1) Test method: HepG 2.2.15 cells were seeded into a 96-well culture plate and various dilutions of test samples and positive control were added, respectively. CellTiter-Blue (Promega, Catalog #G8081) was added for 6 days of culture.
On the technique in general: The colour change of resazurin is a common sign of viable cells or microbes.

In series [3] the test system is HepG 2.2.15 cells. Put plainly: Cytotoxicity test (CellTiter-Blue). In kind it is cell-based. As to the method: as §1
Series [4] has as its system HIV-1 (IIIb). Put plainly: microbe, parasite or virus in culture. It counts as cell-based. As to the method:
1) MT-2 cells were infected with HIV-1 (IIIb) to form multiplicity of infection (MOI) 0.01 TCID50 per cell.
2) The mixture of virus and cells was incubated in a 384-well plate for 3 days.
4) The supernatant was transferred to a new plate and incubated with reporter cells (HeLa) for 24 hours.
5) Detecting beta-GAL activity to evaluate anti-HIV activity.
(§2) 7) The antiviral activity and cytotoxicity were calculated according to the following equation: Antiviral activity (%)=100−(Detection value−Maximum value)/(Minimum value−Maximum value)*100 Cytotoxicity (%)=100−(Detection value−Maximum value)/(Minimum value−Maximum value)*100 8) EC50 and CC50 were calculated with Fit Curve of Graphpad Prism 5 (the results are shown in Table 4).

A short description of series [5]: Cytotoxicity in cells free of virus (anti-HIV test). In kind it is cell-based. The note with it: human. As to the method: 3) Cells for the cytotoxic detection were incubated in a 384-well plate for 3 days.
6) Luminescent signal of the cells free of virus was detected to evaluate cytotoxicity after incubation for 3 days.
as §2

Series [6] in a line: Stability test in acidic medium (hydrochloric acid solution pH 2.0). In kind it is physicochemical. The following applies: Acid medium (pH = 2). The protocol: 4.5 mL of 36% hydrochloric acid was transferred into a 1 L volumetric flask and diluted with water to 1 L to prepare a stock solution. Then 10 mL of the above solution was transferred into a 50 mL volumetric flask and diluted with water to 50 mL to prepare the hydrochloric acid solution with pH 2.0.
5.0 mg of GS-7340 were transferred into a 5 mL volumetric flask and mixed with 2.5 mL of isopropyl alcohol to dissolve GS-7340, and then the hydrochloric acid solution (pH 2.0) was added to 5 mL. The solution was shaken well and filtered for using.
5.0 mg of compound Ia1 were transferred into a 5 mL volumetric flask and mixed with 2.5 mL of isopropyl alcohol to dissolve compound Ia1, and then the hydrochloric acid solution (pH 2.0) was added to 5 mL. The solution was shaken well and filtered for using.
(§3) The prepared sample was filled into the chromatography vial as the initial sample and immediately injected. Meanwhile, the rest of the samples were put into a 37° C. incubator, and were injected into the HPLC system after 6 hours.

A short description of series [7]: Stability test in simulated gastric juice (pepsin, pH 2.0). In kind it is physicochemical. The protocol:
10 ml of the stock solution and 500.0 mg of pepsin were transferred into a 50 mL volumetric flask and diluted with water to 50 ml, which was then subjected to ultrasound to dissolve the pepsin (the solution was not clear now) and then filtered to give a clear solution as simulated gastric juice.
5.0 mg of GS-7340 were transferred into a 5 mL volumetric flask and mixed with 2.5 mL of isopropyl alcohol to dissolve GS-7340, and then the simulated gastric juice was added to 5 mL. The solution was shaken well and filtered for using.
5.0 mg of compound Ia1 were transferred into a 5 mL volumetric flask and mixed with 2.5 mL of isopropyl alcohol to dissolve compound Ia1, and then the simulated gastric juice was added to 5 mL. The solution was shaken well and filtered for using.
as §3

Series [8] in a line: Metabolic stability in fresh human whole blood and distribution test in PBMCs. It counts as in vitro ADME. The protocol:
Different tenofovir prodrugs were incubated together with fresh human whole blood at 37° C. Plasma and PBMCs were separated, respectively, from the whole blood (Ficoll density gradient centrifugation method) after 1 hour and 2 hours incubation to determine the concentrations of prototype drug and metabolite-tenofovir in plasma and PBMCs. The PBMCs were counted via cell counter and each PBMC was treated as 200 fL to calculate intracellular drug concentration.
20 μL of internal standard solution (400 ng/mL SN-38 solution), […], methanol-water (50:50, v/v), and 200 μL acetonitrile were added to 100 μL plasma sample or PBMC sample, respectively. The mixture was mixed by vortex for 1 min and centrifuged for 5 min (14000 rpm). 20 μL supernatant and 180 μl mobile phase were mixed by vortex for 1 min, and 10 μL of the above mixture was injected into LC/MS/MS for analysis.

The conditions of series [9]: background statement; cited from earlier work.
The mark [10] stands for this setting: Hepatitis B virus, HepG2.2.15, 144 h.

What is called IC50 is the concentration at which inhibition is half-maximal. The term CC50 denotes the concentration that lowers cell viability or growth by half. `CC(C)OC(=O)C(C)(C)NP(=O)(CO[C@H](C)Cn1cnc2c(N)ncnc21)Oc1ccccc1` (stereo partly shown) [Ia] displayed an IC50 in series [1] (setting [10]) of 0.021 µM. Further, the CC50 at 6 days in [2] is above 10 µM.
On to `CC(C)OC(=O)C(C)(C)N[P@](=O)(CO[C@H](C)Cn1cnc2c(N)ncnc21)Oc1ccc(Cl)cc1` [Ic1], for which, in series [1] (HepG 2.2.15 cells), the “inhibitory effect on HBV-DNA replication (in words)” value (shortened to “inhibitory effect … (in words)”) was “significant inhibitory effect” and the “inhibitory effect on HBV-DNA replication compared with positive control GS7340” value was “better than that of the positive control GS7340”. This molecule yielded an IC50 in series [1] (setting [10]) of 0.0053 µM. Also, in series [2], the CC50 at 6 days is above 10 µM. Further, the “cytotoxicity (in words)” value in series [3] is given as “without cytotoxicity”.
With `CC(C)OC(=O)C(C)(C)N[P@@](=O)(CO[C@H](C)Cn1cnc2c(N)ncnc21)Oc1ccccc1` [Ia2], the midpoint of inhibition in series [1] (setting [10]), the IC50, lay at 0.032 µM. For the same molecule, the 50% cytotoxic concentration (CC50) at 6 days in [2] was above 10 µM.
For `COc1ccc(O[P@@](=O)(CO[C@H](C)Cn2cnc3c(N)ncnc32)NC(C)(C)C(=O)OC(C)C)cc1` [Id1], in series [1] (HepG 2.2.15 cells), the “inhibitory effect … (in words)” value was “significant inhibitory effect” and the “inhibitory effect on HBV-DNA replication compared with positive control GS7340” value is “better than that of the positive control GS7340”. In series [1] (setting [10]), this molecule came in with an IC50 of 0.0062 µM. Further, the CC50 at 6 days in series [2] is above 10 µM. Besides, the “cytotoxicity (in words)” value in [3] is “without cytotoxicity”.
For orientation: EC50 means the concentration that produces a half-maximal response. With `CC(C)OC(=O)OCOP(=O)(CO[C@H](C)Cn1cnc2c(N)ncnc21)OCOC(=O)OC(C)C` [Tenofovir Disoproxil, reference compound], in [4] (Human immunodeficiency virus 1, MT2, 72 h, MT-2 cells infected with HIV-1 (IIIb), 3 days, read-out: EC50), the concentration giving a half-maximal response (EC50) came to 0.011 µM. Also, the CC50 at 3 days in [5] turned out to be 16.9 µM.
Regarding `CC(C)OC(=O)[C@H](C)N[P@](=O)(CO[C@H](C)Cn1cnc2c(N)ncnc21)Oc1ccccc1` [GS-7340, reference compound], in [1] (setting [10]), the IC50 amounted to 0.014 µM. Further, in series [2], the CC50 at 6 days was above 10 µM. Besides, the Change value is recorded as 3.2% in [6] (37° C., 6 hours) and 4.3% in [7] (37° C., 6 hours). The “Purity after 6 hours” value in series [6] (37° C., 6 hours) is 95.5%; in [7] (37° C., 6 hours), 94.4%. Besides, the Initial purity in series [6] (initial sample) and in series [7] (initial sample) was 98.7% each time. Further, the Prototype concentration in series [8] (0 hour, initial concentration, fresh human whole blood) worked out at 16.9 µM; in [8] (1 hour incubation at 37° C., in PBMCs) it was 2448 µM; in [8] (1 hour incubation at 37° C., in plasma) it was 14.5 µM; in series [8] (2 hour incubation at 37° C., in PBMCs), 2357 µM; in series [8] (2 hour incubation at 37° C., in plasma), 13.0 µM. Further, the “change of active metabolite-tenofovir concentration in PBMCs over the incubation time (in words)” value in [8] (1 hour to 2 hours) was “almost the same”. Besides, the “change of active metabolite-tenofovir released in plasma over the incubation time (in words)” value in series [8] (1 hour to 2 hours) is “increased significantly”. Besides, the “active metabolite-tenofovir detected in plasma (in words)” value in series [8] (after incubation with fresh human whole blood) is reported as “certain active metabolite-tenofovir was detected”. The same molecule came in with a concentration for a half-maximal effect (EC50) in [4] (Human immunodeficiency virus 1, IIIB, MT2, 72 h) of 0.012 µM. In addition, the CC50 at 3 days in [5] (cells free of virus, 3 days, luminescent signal, read-out: Toxicity CC50) is above 150 µM. In addition, the “metabolite-tenofovir detected in plasma” value in [9] is reported as 1-2%. For the same molecule, the “total concentration of the active ingredient in PBMCs relative to tenofovir” value in series [9] is given as 30 times. For the same molecule, the “total concentration of the active ingredient in PBMCs relative to tenofovir disoproxil” value in [9] is on record as 10 times.
With `CC(C)OC(=O)C(C)(C)N[P@](=O)(CO[C@H](C)Cn1cnc2c(N)ncnc21)Oc1cccc2ccccc12` [If1], in series [1] (HepG 2.2.15 cells), the “inhibitory effect … (in words)” value is “significant inhibitory effect” and the “inhibitory effect on HBV-DNA replication compared with positive control GS7340” value is given as “better than that of the positive control GS7340”. The molecule also showed a 50% inhibitory concentration (IC50) in series [1] (setting [10]) of 0.0075 µM. For the same molecule, in series [2], the CC50 at 6 days was above 10 µM. In addition, the “cytotoxicity (in words)” value in [3] is on record as “without cytotoxicity”.
For `CC(C)OC(=O)C(C)(C)N[P@](=O)(CO[C@H](C)Cn1cnc2c(N)ncnc21)Oc1ccc(C(F)(F)F)cc1` [Ij1], in that order: “significant inhibitory effect”, “better than that of the positive control GS7340”, 0.007 µM, above 10 µM and “without cytotoxicity”.
`CC(C)OC(=O)C1(N[P@](=O)(CO[C@H](C)Cn2cnc3c(N)ncnc32)Oc2ccccc2)CC1` [Ib1]: the “inhibitory effect … (in words)” value in series [1] (HepG 2.2.15 cells) is listed as “significant inhibitory effect”. The molecule further registered a 50% inhibitory concentration (IC50) in series [1] (setting [10]) of 0.015 µM. The CC50 at 6 days in series [2] was above 10 µM. Further, the “cytotoxicity (in words)” value in series [3] is given as “without cytotoxicity”.
Consider `Cc1cccc(C)c1O[P@@](=O)(CO[C@H](C)Cn1cnc2c(N)ncnc21)NC(C)(C)C(=O)OC(C)C` [Ih1], for which, in series [1] (HepG 2.2.15 cells), the “inhibitory effect … (in words)” value is on record as “significant inhibitory effect” and the “inhibitory effect on HBV-DNA replication compared with positive control GS7340” value is “better than that of the positive control GS7340”. Also, inhibition in series [1] (setting [10]) was half-maximal at 0.0059 µM (IC50). Further, the CC50 at 6 days in series [2] is above 10 µM. Besides, the “cytotoxicity (in words)” value in series [3] is recorded as “without cytotoxicity”.
For the molecule `CC(C)OC(=O)[C@H](C)N[P@](=O)(CO[C@H](C)Cn1cnc2c(N)ncnc21)Oc1ccccc1` [GS-7171, reference compound], the IC50 in series [1] (HepG 2.2.15 cells, 6 days of culture, HBV DNA-replication by dot blot, read-out: IC50) turned out to be 0.035 µM. The CC50 in series [3] (6 days of culture, read-out: Toxicity CC50) is above 10 µM.
As to `CC(C)OC(=O)C(C)(C)N[P@](=O)(CO[C@H](C)Cn1cnc2c(N)ncnc21)Oc1ccc(F)cc1` [Ii1], the “inhibitory effect on HBV-DNA replication compared with positive control GS7340” value in [1] (HepG 2.2.15 cells) is “better than that of the positive control GS7340”. The same molecule displayed an IC50 in [1] (setting [10]) of 0.0083 µM. Besides, the CC50 at 6 days in series [2] is above 10 µM.
